PMC6158189, “A pharmacological probe identifies cystathionine β-synthase as a new negative regulator for ferroptosis” (Cell Death & Disease, 2018)
Entries after “also recorded” stand apart in the source; their conditions may differ.

Biological target: T1, CBS-FL mutant (293T-CBS Q222A) (Homo sapiens, UniProt P35520, Q222A)
T1 construct: human CBS or hCSE full-length (CBS-FL or CSE) was subcloned into pGEX-KG, pcDNA3 or pCDH vector; expressed in transfected cells
Test: H2S in HEK293T cells stably expressing CBS Q222A (AzMC probe)
Format: cell-based
Conditions: 5 and 10 μM CH004, 8 h
Procedure: HEK293T cells were transiently transfected with empty vector (EV, i and ii), hCBS-FL (iii and iv) or hCSE (v and vi) plasmids, followed by incubation with DMSO (i–iii and v) or 10 μM CH004 (iv and vi) for 8 h before staining with 50 μM AzMC, a H2S-specific probe (“Materials and Methods” section). For larger fluorescent and bright-field images, please see Supplementary Figure 4. The expression levels of hCBS or hCSE in HEK293T cells after transient transfections were determined by western blotting using an anti-CBS antibody (3E1, 1:2000; Abnova) or anti-CSE antibody (1:500, GeneTex). The densities of protein bands for hCBS or hCSE in the blots were quantified with the ImageJ software (National Institutes of Health, Bethesda, MD, USA) and expressed as ratios of respective control (EV group). […] The fluorescent images of the H2S (blue) were accordingly quantified (“Materials and Methods” section) with ImageJ. […] A representative fluorescence image from three independent experiments is shown. […]
H2S levels in living cells were detected using a H2S-specific fluorescent probe according to a protocol described previously[31],[55]. […] After incubation with 50 μM AzMC at 37 °C for 30 min, the cells were washed 4 times with PBS, and the fluorescent images were recorded with excitation by 405 nm laser by using a A1Si (Nikon) confocal microscope. […]

## Cn1nc(Cc2ccccc2)nc2c(=O)n(C)c(=O)nc1-2 [CH004, 3-benzyl-1,6-dimethylpyrimido[5,4-e][1,2,4]triazine-5,7(1H,6H)-dione]
  effect on H2S: no significant decrease; also recorded: hardly affected
